From ChEMBL document CHEMBL1149947, “Identification and chemical synthesis of MDL 105,212, a non-peptide tachykinin antagonist with high affinity for NK1 and NK2 receptors” (Bioorg Med Chem Lett, 1996)

Legend:
Substance-P receptor = Substance-P receptor (Homo sapiens, UniProt P25103); experiment: Binding affinity against Neurokinin 1(NK1) receptor from human IM-9 cells using [I]-Bolton Hunter labeled SP; format: cell-based
Substance-K receptor = molecular target: T1, Substance-K receptor (Homo sapiens, UniProt P21452); experiment: Binding affinity against human NK2 receptors from HSKR-1 cells using [125I]-Iodohistidyl NKA; format: cell-based
T1 sequence (P21452 whole entry): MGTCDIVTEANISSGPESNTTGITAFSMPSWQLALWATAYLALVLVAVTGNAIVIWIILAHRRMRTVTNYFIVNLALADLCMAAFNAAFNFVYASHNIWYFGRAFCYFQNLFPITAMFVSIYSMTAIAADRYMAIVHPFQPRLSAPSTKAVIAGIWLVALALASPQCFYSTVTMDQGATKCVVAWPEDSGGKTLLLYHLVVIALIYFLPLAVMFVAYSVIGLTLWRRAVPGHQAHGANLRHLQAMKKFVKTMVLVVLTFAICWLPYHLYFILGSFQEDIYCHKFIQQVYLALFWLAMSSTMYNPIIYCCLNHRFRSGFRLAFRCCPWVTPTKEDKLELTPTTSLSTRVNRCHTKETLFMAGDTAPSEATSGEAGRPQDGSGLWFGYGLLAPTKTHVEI

Neuromedin-K receptor = molecular target: T2, Neuromedin-K receptor (Cavia porcellus, UniProt P30098); experiment: NK3 IC50 determined using [125I]bolton Hunter labeled eledoisin at NK3 receptors from guinea pig cerebral cortex; format: tissue-based
T2 sequence (P30098 whole entry): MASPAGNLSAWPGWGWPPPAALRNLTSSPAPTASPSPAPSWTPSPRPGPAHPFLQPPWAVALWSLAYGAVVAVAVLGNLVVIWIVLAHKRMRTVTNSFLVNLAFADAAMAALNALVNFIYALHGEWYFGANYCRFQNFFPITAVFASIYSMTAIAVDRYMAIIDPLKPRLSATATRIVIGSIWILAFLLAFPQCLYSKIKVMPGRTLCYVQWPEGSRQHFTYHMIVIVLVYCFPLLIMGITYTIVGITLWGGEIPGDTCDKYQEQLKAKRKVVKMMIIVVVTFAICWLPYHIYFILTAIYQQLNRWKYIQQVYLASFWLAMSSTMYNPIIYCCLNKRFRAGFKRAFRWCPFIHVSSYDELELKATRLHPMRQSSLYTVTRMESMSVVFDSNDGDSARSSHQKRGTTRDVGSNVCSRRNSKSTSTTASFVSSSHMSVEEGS

Sequence of Substance-P receptor (P25103 whole entry): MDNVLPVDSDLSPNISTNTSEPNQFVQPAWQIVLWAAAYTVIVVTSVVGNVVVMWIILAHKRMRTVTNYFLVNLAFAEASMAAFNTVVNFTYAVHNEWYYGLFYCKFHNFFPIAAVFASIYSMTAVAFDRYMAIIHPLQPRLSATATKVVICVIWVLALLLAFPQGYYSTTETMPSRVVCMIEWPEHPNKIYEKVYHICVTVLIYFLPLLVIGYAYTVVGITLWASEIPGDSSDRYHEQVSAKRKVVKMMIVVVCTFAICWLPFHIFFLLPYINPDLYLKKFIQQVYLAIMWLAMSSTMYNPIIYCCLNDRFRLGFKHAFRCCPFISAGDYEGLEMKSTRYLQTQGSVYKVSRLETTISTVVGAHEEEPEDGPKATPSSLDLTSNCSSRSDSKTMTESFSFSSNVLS

| SMILES | IC50 (Substance-P receptor) | IC50 (Substance-K receptor) | IC50 (Neuromedin-K receptor) |
| --- | --- | --- | --- |
| COc1cc(C(=O)N2CCC(CCN3CCC(C(N)=O)(c4ccccc4)CC3)(c3ccc(Cl)c(Cl)c3)C2)cc(OC)c1OC (configuration not stated) | 6.19 nM | 18.8 nM |  |
| COc1cccc(OC)c1C(=O)N1CCC(CCN2CCC(C(N)=O)(c3ccccc3)CC2)(c2ccc(Cl)c(Cl)c2)C1 (configuration not stated) | 22.8 nM | 53.2 nM |  |
| COc1c(Br)cc(C(=O)N2CCC(CCN3CCC(C(N)=O)(c4ccccc4)CC3)(c3ccc(Cl)c(Cl)c3)C2)cc1Br (configuration not stated) | 313 nM | 4.04 nM |  |
| COc1c(C)cc(C(=O)N2CCC(CCN3CCC(C(N)=O)(c4ccccc4)CC3)(c3ccc(Cl)c(Cl)c3)C2)cc1C (configuration not stated) | 168 nM | 6.94 nM |  |
| COc1ccccc1C(=O)N1CCC(CCN2CCC(C(N)=O)(c3ccccc3)CC2)(c2ccc(Cl)c(Cl)c2)C1 (configuration not stated) | 73.6 nM | 16.7 nM |  |
| COc1cccc(C(=O)N2CCC(CCN3CCC(C(N)=O)(c4ccccc4)CC3)(c3ccc(Cl)c(Cl)c3)C2)c1 (configuration not stated) | 107 nM | 12 nM |  |
| COc1ccccc1CN[C@H]1C2CCN(CC2)[C@H]1C(c1ccccc1)c1ccccc1 [CP-96345] |  | > 10000 nM | > 10000 nM |
| NC(=O)C1(c2ccccc2)CCN(CCC2(c3ccc(Cl)c(Cl)c3)CCN(C(=O)c3ccccc3)C2)CC1 (configuration not stated) | 271 nM |  |  |
| CCOC(=O)Oc1c(OC)cc(C(=O)N2CCC(CCN3CCC(C(N)=O)(c4ccccc4)CC3)(c3ccc(Cl)c(Cl)c3)C2)cc1OC (configuration not stated) | 252 nM | 96.3 nM |  |
| COc1cc(C(=O)N2CCC(CCN3CCC(C(N)=O)(c4ccccc4)CC3)(c3ccc(Cl)c(Cl)c3)C2)cc(OC)c1OC(C)C (configuration not stated) | 65.9 nM | 42.4 nM |  |
| CC(C)Oc1cccc(CC(=O)N2CCC(CCN3CCC(C(N)=O)(c4ccccc4)CC3)(c3ccc(Cl)c(Cl)c3)C2)c1 (configuration not stated) | 138 nM | 548 nM |  |
| COc1cc(C(=O)N2CC[C@](CCN3CCC(C(N)=O)(c4ccccc4)CC3)(c3ccc(Cl)c(Cl)c3)C2)cc(OC)c1OC | 3.11 nM | 8.4 nM | 21 nM |
| COc1ccccc1CC(=O)N1CCC(CCN2CCC(C(N)=O)(c3ccccc3)CC2)(c2ccc(Cl)c(Cl)c2)C1 (configuration not stated) | 48.2 nM |  |  |
| COc1cc(CC(=O)N2CCC(CCN3CCC(C(N)=O)(c4ccccc4)CC3)(c3ccc(Cl)c(Cl)c3)C2)cc(OC)c1OC (configuration not stated) | 66.2 nM | 55.5 nM |  |
| COc1ccc(C(=O)N2CCC(CCN3CCC(C(N)=O)(c4ccccc4)CC3)(c3ccc(Cl)c(Cl)c3)C2)c(OC)c1 (configuration not stated) | 127 nM |  |  |
| COc1cc(C(=O)N2CCC(CCN3CCC(C(N)=O)(c4ccccc4)CC3)(c3ccc(Cl)c(Cl)c3)C2)cc(OC)c1C (configuration not stated) | 64.1 nM | 13.4 nM |  |
| CC(=O)NC1(c2ccccc2)CCN(CC[C@H](CN(C)C(=O)c2ccccc2)c2ccc(Cl)c(Cl)c2)CC1 [SAREDUTANT] | 593 nM | 0.44 nM | 208 nM |
| COc1ccc(C(=O)N2CCC(CCN3CCC(C(N)=O)(c4ccccc4)CC3)(c3ccc(Cl)c(Cl)c3)C2)cc1 (configuration not stated) | 634 nM | 11.8 nM |  |
| COc1cc(OC)cc(C(=O)N2CCC(CCN3CCC(C(N)=O)(c4ccccc4)CC3)(c3ccc(Cl)c(Cl)c3)C2)c1 (configuration not stated) | 69.9 nM | 19.1 nM |  |
